Structures are written as SMILES. Bounds are passed on as bounds.

In assay [1] the test system is CXCL8/IL-8. In words: Human precision cut lung slices (PCLS) with fibrotic cocktail: IL-8 ELISA. Particulars: living human PCLS. Format: cell-based. Here is the method: PCLS were prepared as described before (31, 32). Shortly, PCLS were prepared from tumor-free peri-tumor tissue. The lung tissue was inflated with 3% agarose solution and solidified at 4° C. Tissue blocks were cut in μm thick PCLS using a vibration microtome Hyrax V50 (Zeiss). PCLS were cultured in DMEM F-12 medium and treated with a profibrotic cocktail, as described before (31), or vehicle, as well as with small molecules or vehicles for 7 days. After culturing and treatments, supernatants were harvested. PCLS were […] washed in PBS and protein was extracted as previously described (33). Briefly, PCLS were pooled in an Eppendorf tube and lysed in 500 μl ice-cold RIPA buffer (50 mM Tris-CI pH 7.4, 150 mM NaCl, 1% NP40, 0.25% Na-deoxycholate) containing 1× Roche complete mini protease inhibitor cocktail (Roche, Cat. #11697498001). After an incubation of 2 hours rotating at 4° C., the lung slices were removed from the lysates and the protein content was measured.
Cells were scraped off the plastic dish directly into 200 μl ice-cold RIPA buffer containing 1× Roche complete mini protease inhibitor cocktail. […] CXCL/IL-8 concentrations were determined using Human IL-8/CXCL8 DuoSet ELISA (DY208-05) according to the manufacturer's protocol.

For assay [2], the system named is TGFβ1-induced fibulin-1 ECM deposition in primary human lung IPF-fibroblasts (phLFs). Briefly: Assessing N23P activity in inhibiting ECM deposition in IPF-fibroblasts (fibulin-1 MFI). The settings on record: Homo sapiens, 72 h, 10 μM, TGFβ1 1 ng/ml, MFI, three different IPF-phLFs (n=3). Format: cell-based. Here is the method:
phLFs were cultured in DMEM F-12 medium with 20% fetal bovine serum (FBS) and antibiotic supplement as mentioned above. Cells were seeded with 6000 cells/well in 384-well CellCarrier plates (Perkin Elmer, Cat #6007550). Following overnight incubation, cells were starved in serum-reduced medium (1% FBS with 0.1 mM 2-phosphoascorbate (Sigma, Cat #49752)) for 24 h. Afterwards, cells were treated with TGFβ1 (1 ng/ml) or vehicle, and additionally small molecules or appropriate vehicle controls were added. After 72 h of incubation, medium was changed for starving medium with 1 μg/mL AlexaFluor-488 fluorophore conjugated anti-collagen-type-5 antibodies (SantaCruz, Clone C-5, Cat #sc-166155 AF488), 0.66 μg/mL AlexaFluor-555 fluorophore conjugated anti-collagen-type-1 antibodies (Rockland, Cat #600-401-103-0.1), and 1 μg/mL AlexaFluor-637 fluorophore conjugated anti-fibulin 1 antibodies (SantaCruz, Clone C-5, Cat #sc-25281 AF647) and 1 μg/mL Hoechst H33342 (Sigma). Fluorescenceconjugation of the collagen type 1 antibody was done by using the AlexaFluor-555 Protein Labeling Kit (Invitrogen, Cat #A20174) according to manufacturer's instructions. Labeling efficacy was controlled by photometrical means.
Following four hours of incubation, cells were washed three times with PBS and fixed with paraformaldehyde (PFA). For automated liquid handling in 384 well plates, an INTEGRA Assist Plus (INTEGRA, Zizers, Switzerland) equipped with an INTEGRA Viaflo 1I pipette (INTEGRA, Zizers, Switzerland, Cat #4642), 125 μL GripTips™ pipette tips (INTEGRA, Zizers, Switzerland, Cat #6464) and sterile reagent reservoirs (INTEGRA, Cat #4311) were applied. All automated pipetting steps with the INTEGRA Assist Plus were performed at 9.5 μL/s in order to ensure proper integrity and attachment of the deposited ECM to the culturing surface within the wells of the 384-well plates. During cell seeding the automated liquid handling was performed at 89.3 μL/s. Removal of liquids from the well-plates was done by manually inverting the plates.
Following fixation, the automated imaging was achieved by using aconfocal laser scanning microscope (LSM710, Zeiss) with automated focus detection for three-dimensional image acquisition (1024 px×1024 px×9 px which equals a dimension of 1417 μm×1417 μm×16 μm). For post-acquisition analysis images were imported into IMARIS software (Bitplane) and volume detection or alternatively quantification of the mean fluorescence intensity, as well as Hoechst-stained cell nuclei were automatically counted by using Imaris' spot detection algorithm.
Cells were seeded with 6000 cells/well in 384-well CellCarrier plates. After overnight incubation, cells were starved in serum-reduced medium (1% FBS with 0.1 mM 2-phosphoascorbate for 24 h). Then, phLFs were treated with TGFβ1 (1 ng/ml) or vehicle, and incubated together with synthesized N23Ps (10 μM) or appropriate vehicle controls. After 72 h of incubation, medium was changed for starvation medium with 1 μg/mL AlexaFluor-637 fluorophore conjugated anti-fibulin 1 antibodies (SantaCruz, Clone C-5, Cat #sc-25281 AF647) and 1 μg/mL Hoechst H33342 (Sigma). Following four hours of incubation, cells were washed three times with PBS and fixed with paraformaldehyde (PFA). Following fixation, the automated imaging was achieved by using a confocal laser scanning microscope (LSM710, Zeiss) with automated focus detection for three-dimensional image acquisition (1024 px×1024 px×9 px which equals a dimension of 1417 μm×1417 μm×16 μm). For post-acquisition analysis images were imported into IMARIS software (Bitplane) and quantified for the mean fluorescence intensity, as well as Hoechst-stained cell nuclei were automatically counted by using Imaris' spot detection algorithm.
Assessment of ECM inhibition I: Mean fluorescence intensity (MFI) values represented the degree of fibulin-1 ECM deposition in three different IPF-phLFs (n=3). […]

Turning to `CCCCOc1ccccc1NC(=O)/C=C/c1ccc(OC)c(OC)c1` [Example 84, (E)-N-(2-butoxyphenyl)-3-(3,4-dimethoxyphenyl)acrylamide], in assay [1], the “CXCL8/IL-8 (ELISA)” value is on record as “diminution of pro-fibrotic CXCL8/IL-8”. The compound also yielded an inhibition at 10 µM in assay [2] of more than 90%.

These data come from patent US20240294465A1, “NOVEL ANTI-FIBROTIC DRUGS” (HELMHOLTZ ZENTRUM MUNCHEN - DEUTSCHES FORSCHUNGSZENTRUM FUR …, priority 2021, published 2024).
